Measured values as given in ChEMBL document CHEMBL1146426, “Isolation and characterization of new anti-HIV and cytotoxic leads from plants, marine, and microbial organisms” (J Nat Prod, 1997).
Converted amounts (≈) assume the structure as drawn.

Legend:
[1] = system: Human immunodeficiency virus 1; assay: Antiviral activity against HIV1 infected in human CEM-SS cells assessed as inhibition of virus-induced cytopathic effect after 6 days by XTT-based assay; format: functional, organism-based; conditions: Human immunodeficiency virus 1, CEM-SS, 144 h
[2] = system: CEM-SS; assay: Cytotoxicity against human CEM-SS cells after 6 days by XTT-based assay; format: cell-based; conditions: 144 h
[3] = system: Human immunodeficiency virus 1; assay: Antiviral activity against HIV1 infected in human CEM-SS cells assessed as protection against viral infection after 6 days by XTT-based assay relative to control; format: functional

Compound	EC50 [1]	IC50 [2]	Activity [3]
COc1cc2c(cc1CC=C(C)C)[C@@H]1Oc3cc(O)ccc3[C@@H]1CO2	0.2 µg/mL (≈ 0.591 µM)	3 µg/mL (≈ 8.87 µM)	80%
COc1ccc2c(c1CC=C(C)C)O[C@H]1c3ccc(O)cc3OC[C@@H]21 [SANDWICENSIN]	2 µg/mL (≈ 5.91 µM)	7 µg/mL (≈ 20.7 µM)	50%
